Data from ChEMBL document CHEMBL1201862, “PubChem BioAssay data set” (2004).
The source made the active and inactive calls.

Legend:
Phospholipase D2 = Phospholipase D2 (Homo sapiens, UniProt O14939); assay: PLD2 inhibitor potency in cells, dose response (AID 602147); type: functional;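 further: cellular assay in HEK293 cells overexpressing GFP-tagged PLD2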
Phospholipase D1 = Phospholipase D1 (Homo sapiens, UniProt Q13393); assay: PLD1 inhibitor potency in cells, dose response (AID 602151); type: functional;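 further: cellular PLD1 assay in Calu-1 cells stimulated with PMA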
Chain of Phospholipase D1 (Q13393 whole entry): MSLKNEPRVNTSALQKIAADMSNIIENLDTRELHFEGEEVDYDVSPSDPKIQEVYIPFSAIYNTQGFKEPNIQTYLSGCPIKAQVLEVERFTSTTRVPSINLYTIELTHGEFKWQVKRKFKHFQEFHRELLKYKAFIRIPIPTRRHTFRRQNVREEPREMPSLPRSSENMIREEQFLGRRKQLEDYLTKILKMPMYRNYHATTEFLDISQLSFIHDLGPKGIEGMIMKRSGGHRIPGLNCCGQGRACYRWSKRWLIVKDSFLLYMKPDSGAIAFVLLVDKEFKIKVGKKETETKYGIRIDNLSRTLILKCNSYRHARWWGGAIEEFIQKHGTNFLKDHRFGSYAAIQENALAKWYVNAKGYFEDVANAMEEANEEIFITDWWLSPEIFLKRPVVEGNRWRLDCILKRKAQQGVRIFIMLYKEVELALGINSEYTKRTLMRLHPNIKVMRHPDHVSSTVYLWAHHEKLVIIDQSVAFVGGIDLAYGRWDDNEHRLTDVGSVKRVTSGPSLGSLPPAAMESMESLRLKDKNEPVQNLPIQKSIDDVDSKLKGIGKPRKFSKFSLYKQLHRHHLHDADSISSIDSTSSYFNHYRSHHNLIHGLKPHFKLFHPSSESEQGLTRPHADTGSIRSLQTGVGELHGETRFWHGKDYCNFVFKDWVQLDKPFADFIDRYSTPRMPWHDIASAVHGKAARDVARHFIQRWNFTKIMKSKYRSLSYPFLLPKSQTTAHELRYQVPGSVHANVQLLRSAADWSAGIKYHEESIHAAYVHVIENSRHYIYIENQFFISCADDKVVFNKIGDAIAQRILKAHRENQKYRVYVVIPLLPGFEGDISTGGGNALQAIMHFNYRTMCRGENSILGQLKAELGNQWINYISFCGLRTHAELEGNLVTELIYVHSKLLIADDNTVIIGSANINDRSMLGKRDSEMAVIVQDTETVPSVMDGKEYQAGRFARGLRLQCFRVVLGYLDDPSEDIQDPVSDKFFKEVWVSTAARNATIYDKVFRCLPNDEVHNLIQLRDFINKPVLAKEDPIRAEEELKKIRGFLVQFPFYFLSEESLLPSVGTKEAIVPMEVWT

Caspase-3 = target: T1, Caspase-3 (Homo sapiens, UniProt P42574); assay: caspase-3 inhibitors as off-family protease, SAR follow-up, selectivity assay for SENP protease inhibitor project, biochemical, luminescence, set 2 (AID 588599); type: functional
T1 sequence (P42574 whole entry): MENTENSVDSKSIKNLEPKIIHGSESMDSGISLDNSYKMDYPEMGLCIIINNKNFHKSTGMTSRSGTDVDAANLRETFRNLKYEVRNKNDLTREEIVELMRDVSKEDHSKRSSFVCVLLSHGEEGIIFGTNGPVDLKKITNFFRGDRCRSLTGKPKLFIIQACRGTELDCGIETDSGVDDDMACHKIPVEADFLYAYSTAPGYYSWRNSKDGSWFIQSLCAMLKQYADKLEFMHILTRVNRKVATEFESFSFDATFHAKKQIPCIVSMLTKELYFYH

[1] = target: T2, Sentrin-specific protease 7 (Homo sapiens, UniProt Q9BQF6); assay: SENP7 protease inhibitors, SAR follow-up, biochemical, luminescence, set 2 (AID 588600); type: functional
T2 sequence (Q9BQF6 whole entry): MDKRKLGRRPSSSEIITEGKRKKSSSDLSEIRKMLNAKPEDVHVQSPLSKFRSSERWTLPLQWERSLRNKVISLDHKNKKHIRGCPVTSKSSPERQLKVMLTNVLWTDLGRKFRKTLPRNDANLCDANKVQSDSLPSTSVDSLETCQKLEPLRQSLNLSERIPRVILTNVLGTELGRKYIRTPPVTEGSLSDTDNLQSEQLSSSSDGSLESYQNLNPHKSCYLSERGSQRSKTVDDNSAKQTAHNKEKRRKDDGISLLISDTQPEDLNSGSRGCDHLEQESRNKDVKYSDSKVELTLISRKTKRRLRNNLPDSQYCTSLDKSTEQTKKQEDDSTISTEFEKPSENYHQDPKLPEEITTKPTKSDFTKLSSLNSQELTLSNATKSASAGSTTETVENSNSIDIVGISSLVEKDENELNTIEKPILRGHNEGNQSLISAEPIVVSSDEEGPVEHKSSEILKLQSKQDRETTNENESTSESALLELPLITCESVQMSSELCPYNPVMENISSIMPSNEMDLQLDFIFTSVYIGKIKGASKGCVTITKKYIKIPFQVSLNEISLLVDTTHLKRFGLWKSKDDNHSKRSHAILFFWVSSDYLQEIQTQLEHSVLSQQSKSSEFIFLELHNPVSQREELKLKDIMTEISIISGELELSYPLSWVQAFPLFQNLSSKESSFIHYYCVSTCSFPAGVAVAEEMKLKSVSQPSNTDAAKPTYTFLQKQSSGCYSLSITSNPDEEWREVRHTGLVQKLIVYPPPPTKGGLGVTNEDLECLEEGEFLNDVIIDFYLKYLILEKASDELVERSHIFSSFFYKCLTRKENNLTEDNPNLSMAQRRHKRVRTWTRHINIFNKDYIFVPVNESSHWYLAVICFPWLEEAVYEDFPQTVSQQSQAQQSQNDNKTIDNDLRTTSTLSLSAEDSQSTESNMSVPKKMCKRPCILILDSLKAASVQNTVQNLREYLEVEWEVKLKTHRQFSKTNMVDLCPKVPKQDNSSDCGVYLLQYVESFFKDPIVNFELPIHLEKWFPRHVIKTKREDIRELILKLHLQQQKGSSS

[2] = target: T3, Sentrin-specific protease 6 (Homo sapiens, UniProt Q9GZR1); assay: SENP6 protease inhibitors, SAR follow-up, biochemical, luminescence, set 2 (AID 588598); type: functional
T3 sequence (Q9GZR1 whole entry): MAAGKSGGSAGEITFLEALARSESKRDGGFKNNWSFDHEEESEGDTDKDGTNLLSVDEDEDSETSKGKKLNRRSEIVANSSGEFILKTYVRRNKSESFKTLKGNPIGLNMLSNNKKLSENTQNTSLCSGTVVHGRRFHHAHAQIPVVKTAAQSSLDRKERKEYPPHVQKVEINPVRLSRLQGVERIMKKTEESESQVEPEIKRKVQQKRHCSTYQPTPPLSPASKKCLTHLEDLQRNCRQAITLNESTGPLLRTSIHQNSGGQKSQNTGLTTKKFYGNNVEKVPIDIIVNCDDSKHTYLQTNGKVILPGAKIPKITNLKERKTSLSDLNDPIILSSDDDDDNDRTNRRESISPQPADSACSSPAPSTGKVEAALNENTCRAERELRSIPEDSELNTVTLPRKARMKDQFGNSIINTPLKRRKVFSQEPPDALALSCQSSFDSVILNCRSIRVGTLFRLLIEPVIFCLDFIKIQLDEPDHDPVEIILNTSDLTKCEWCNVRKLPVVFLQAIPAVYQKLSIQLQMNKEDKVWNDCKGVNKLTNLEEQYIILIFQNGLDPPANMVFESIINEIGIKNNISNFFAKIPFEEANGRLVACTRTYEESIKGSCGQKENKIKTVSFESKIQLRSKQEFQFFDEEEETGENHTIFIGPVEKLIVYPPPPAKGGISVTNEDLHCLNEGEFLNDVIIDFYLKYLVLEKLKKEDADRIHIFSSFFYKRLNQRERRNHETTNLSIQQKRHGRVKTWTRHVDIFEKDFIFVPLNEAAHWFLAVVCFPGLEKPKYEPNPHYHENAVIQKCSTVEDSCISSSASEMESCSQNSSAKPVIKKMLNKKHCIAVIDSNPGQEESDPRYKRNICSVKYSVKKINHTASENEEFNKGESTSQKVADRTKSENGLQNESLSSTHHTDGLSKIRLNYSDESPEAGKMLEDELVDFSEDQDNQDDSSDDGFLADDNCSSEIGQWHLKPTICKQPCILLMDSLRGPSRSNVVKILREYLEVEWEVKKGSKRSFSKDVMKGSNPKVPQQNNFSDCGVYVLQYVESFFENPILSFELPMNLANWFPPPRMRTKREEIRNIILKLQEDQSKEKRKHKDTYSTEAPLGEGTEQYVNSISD

[3] = target: T4, Sentrin-specific protease 8 (Homo sapiens, UniProt Q96LD8); assay: SENP8 protease inhibitors, SAR follow-up, biochemical, luminescence, set 2 (AID 588601); type: functional
T4 sequence (Q96LD8 whole entry): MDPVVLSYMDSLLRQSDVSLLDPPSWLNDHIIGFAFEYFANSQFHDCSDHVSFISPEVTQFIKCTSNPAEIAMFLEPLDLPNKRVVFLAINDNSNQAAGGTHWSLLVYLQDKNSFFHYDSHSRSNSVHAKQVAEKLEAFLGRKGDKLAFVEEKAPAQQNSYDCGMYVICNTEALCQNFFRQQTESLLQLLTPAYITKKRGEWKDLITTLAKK

HEK293 [4] = assay: cytotoxicity in HEK293T NF-kB-Luc cells, SAR follow-up, cytotoxicity control for NF-kB activator project, cell-based, resazurin fluorescence (AID 493251); type: functional; conditions: Homo sapiens
Jurkat = assay: SAR Analysis of small molecule inhibitors of […] specific antigen receptor-induced NF-kB activation in a Jurkat cell line using a luminescence assay - Set 3. [Related pubchem assays (depositor defined):AID435022, AID435025, AID465]; type: functional, cell-based; conditions: Homo sapiens
HEK293 [5] = assay: SAR Analysis of small molecule inhibitors of B-cell specific antigen receptor-induced NF-kB activation in a HEK-293T cell line using a luminescence assay - Set 2. [Related pubchem assays (depositor defined):AID435022, AID435025, AID489021]; type: functional, cell-based; conditions: Homo sapiens
Genome polyprotein = Genome polyprotein (dengue virus type 2, UniProt P29990); assay: Dengue-2 NS5 methyltransferase inhibitors, primary screen, biochemical, confirmation dose response (AID 588689); type: functional
Chain of Genome polyprotein (P29990 2492-3391 limits assumed): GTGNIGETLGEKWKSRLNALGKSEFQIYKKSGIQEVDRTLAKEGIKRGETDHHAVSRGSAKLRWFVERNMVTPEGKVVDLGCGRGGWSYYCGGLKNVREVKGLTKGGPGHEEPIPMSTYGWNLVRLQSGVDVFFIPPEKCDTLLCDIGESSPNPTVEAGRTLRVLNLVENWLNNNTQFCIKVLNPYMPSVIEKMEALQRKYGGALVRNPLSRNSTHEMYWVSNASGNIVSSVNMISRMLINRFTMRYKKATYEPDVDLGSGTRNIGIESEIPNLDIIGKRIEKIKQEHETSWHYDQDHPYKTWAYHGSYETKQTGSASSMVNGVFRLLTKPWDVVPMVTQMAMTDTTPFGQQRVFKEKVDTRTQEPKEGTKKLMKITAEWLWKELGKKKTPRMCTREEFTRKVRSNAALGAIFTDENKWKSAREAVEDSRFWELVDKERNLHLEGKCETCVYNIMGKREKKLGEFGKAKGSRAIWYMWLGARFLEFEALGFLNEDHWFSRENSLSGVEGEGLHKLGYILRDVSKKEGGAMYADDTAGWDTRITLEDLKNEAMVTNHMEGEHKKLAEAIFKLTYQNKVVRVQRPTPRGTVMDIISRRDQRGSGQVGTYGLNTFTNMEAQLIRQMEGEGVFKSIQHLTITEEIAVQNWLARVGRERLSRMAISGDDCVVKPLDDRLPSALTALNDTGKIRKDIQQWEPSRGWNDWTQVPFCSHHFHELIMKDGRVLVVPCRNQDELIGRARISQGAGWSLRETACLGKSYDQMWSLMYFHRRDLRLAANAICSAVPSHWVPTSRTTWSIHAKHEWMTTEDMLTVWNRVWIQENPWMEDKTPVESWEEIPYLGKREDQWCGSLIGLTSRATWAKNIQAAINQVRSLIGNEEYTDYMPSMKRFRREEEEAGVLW

Vero = Vero cell cytotoxicity, cytotoxicity control for flavivirus capping enzyme inhibitors (AID 588742); type: functional; conditions: Chlorocebus sabaeus

Chain of Phospholipase D2 (O14939 whole entry): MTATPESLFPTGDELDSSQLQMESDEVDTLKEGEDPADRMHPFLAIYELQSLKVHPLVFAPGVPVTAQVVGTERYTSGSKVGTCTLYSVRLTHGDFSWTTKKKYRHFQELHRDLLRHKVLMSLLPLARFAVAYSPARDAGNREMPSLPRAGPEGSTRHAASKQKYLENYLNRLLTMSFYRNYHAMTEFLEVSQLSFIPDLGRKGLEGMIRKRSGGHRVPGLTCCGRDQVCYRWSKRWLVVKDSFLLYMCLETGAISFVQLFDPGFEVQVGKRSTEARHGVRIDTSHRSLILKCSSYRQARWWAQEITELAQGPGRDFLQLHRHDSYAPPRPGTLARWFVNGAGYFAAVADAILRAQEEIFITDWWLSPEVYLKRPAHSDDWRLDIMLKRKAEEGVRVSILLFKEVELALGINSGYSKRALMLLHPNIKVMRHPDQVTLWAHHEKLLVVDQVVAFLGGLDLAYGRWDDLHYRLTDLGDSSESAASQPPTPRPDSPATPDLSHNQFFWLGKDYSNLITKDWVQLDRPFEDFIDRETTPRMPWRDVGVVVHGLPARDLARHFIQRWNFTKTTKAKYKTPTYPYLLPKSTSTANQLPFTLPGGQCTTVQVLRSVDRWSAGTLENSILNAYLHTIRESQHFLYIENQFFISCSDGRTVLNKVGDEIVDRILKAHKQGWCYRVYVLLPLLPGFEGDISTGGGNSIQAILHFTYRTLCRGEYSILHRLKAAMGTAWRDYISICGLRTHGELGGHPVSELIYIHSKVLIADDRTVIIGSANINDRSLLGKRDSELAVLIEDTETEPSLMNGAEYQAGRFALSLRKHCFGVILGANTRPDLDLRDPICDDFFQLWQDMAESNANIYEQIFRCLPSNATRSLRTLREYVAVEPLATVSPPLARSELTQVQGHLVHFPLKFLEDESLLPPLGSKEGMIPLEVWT

For `O=C(NCCN1CCC(n2c(=O)[nH]c3ccccc32)CC1)c1cscn1`, the IC50 (Phospholipase D2) was 0.25 µM (active) and the IC50 (Phospholipase D1) was 0.033 µM (active).

In the case of `COc1cccc2sc(NC(=O)c3ccc(OCc4nccn4C)cc3)nc12`, the IC50 (Caspase-3) is reported as 89.9 µM (active), the IC50 [1] is reported as > 99 µM (inactive) and the IC50 [2] is reported as 77.2 µM (active). For the same compound, the IC50 [3] was 77.4 µM (active).

`CNC(=O)CCc1nc(-c2ccc(F)cc2)no1` was tested, and the IC50 (HEK293 [4]) was > 80 µM (inactive), the IC50 (Jurkat) was > 80 µM (inactive) and the IC50 (HEK293 [5]) was > 80 µM (inactive).

For `O=C1NC(=S)NC(=O)C1=Cc1c(Cl)cccc1Cl`, the IC50 (Genome polyprotein) was 26.9 µM (active) and the CC50 (Vero) was > 40 µM (active).
